ChEMBL document CHEMBL5518232, “Discovery of New Tricyclic Oxime Sampangine Derivatives as Potent Antifungal Agents for the Treatment of Cryptococcosis and Candidiasis” (J Med Chem, 2024)
Values after ≈ are worked out from the molar mass of the structure shown.

Legend:
[1] = tested on: Candida albicans; experiment: Antifungal activity against Candida albicans 0304103 assessed as reduction in fungal growth incubated for 48 hrs by liquid based microdilution method; assay type: functional
[2] = Effective permeability of the compound across blood brain barrier incubated for 12 hrs by PAMPA assay; assay type: ADME; settings: read-out: Peff
[3] = tested on: Candida albicans; experiment: Antifungal activity against Candida albicans SC5314 assessed as reduction in fungal growth incubated for 48 hrs by liquid based microdilution method; assay type: functional
[4] = tested on: Nakaseomyces glabratus; experiment: Antifungal activity against Candida glabrata 9073 assessed as reduction in fungal growth incubated for 48 hrs by liquid based microdilution method; assay type: functional
[5] = tested on: Cryptococcus neoformans; experiment: Antifungal activity against Cryptococcus neoformans H99 assessed as reduction in fungal growth incubated for 72 hrs by liquid based microdilution method; assay type: functional
[6] = tested on: Candida tropicalis; experiment: Antifungal activity against Candida tropicalis 10186 assessed as reduction in fungal growth incubated for 48 hrs by liquid based microdilution method; assay type: functional
[7] = Antifungal activity against Cryptococcus gattii VGI ATCC 14116 assessed as reduction in fungal growth incubated for 72 hrs by liquid based microdilution method; assay type: functional
[8] = tested on: Cryptococcus neoformans; experiment: Antifungal activity against Cryptococcus neoformans ATCC 34877 assessed as reduction in fungal growth incubated for 72 hrs by liquid based microdilution method; assay type: functional
[9] = tested on: Candida albicans; experiment: Synergistic antifungal activity against Candida albicans 0304103 assessed as fractional inhibitory concentration index by measuring ratio of MIC80 for compound and synergetic / MIC80 for compound alone + MIC80 for fluconazole synergetic / MIC80 for fluconazole alone; assay type: functional
[10] = tested on: Candida albicans; experiment: Synergistic antifungal activity against Candida albicans 0304103 assessed as inhibition of fungal growth incubated for 48 hrs in presence of fluconazole by checkerboard microdilution assay; assay type: functional
[11] = tested on: Candida albicans; experiment: Antifungal activity against Candida albicans assessed as reduction in fungal growth incubated for 24 hrs by broth microdilution method; assay type: functional
[12] = tested on: Cryptococcus neoformans; experiment: Antifungal activity against Cryptococcus neoformans assessed as reduction in fungal growth incubated for 24 hrs by broth microdilution method; assay type: functional
[13] = tested on: Candida albicans; experiment: Antagonistic antifungal activity against Candida albicans 0304103 assessed as fractional inhibitory concentration index by measuring ratio of MIC80 for compound and synergetic / MIC80 for compound alone + MIC80 for fluconazole synergetic / MIC80 for fluconazole alone; assay type: functional

Structure (SMILES) | MIC80 [1] [µg/mL] | Papp at 12 h [2] [×10⁻⁶ cm/s] | MIC80 [3] [µg/mL] | MIC80 [4] [µg/mL] | MIC80 [5] [µg/mL] | MIC80 [6] [µg/mL] | MIC80 [7] [µg/mL] | MIC80 [8] [µg/mL] | fractional inhibitory concentration index (FICI) [9] | MIC80 [10] [µg/mL] | MIC80 [11] [µg/mL] | MIC80 [12] [µg/mL] | fractional inhibitory concentration index (FICI) [13]
Cc1noc2c1C(=O)c1sccc1C2=O | 0.5 (≈ 2.28 µM) | 7.69 | 0.13 (≈ 0.593 µM) | 1 (≈ 4.56 µM) | 0.031 (≈ 0.141 µM) | 2 (≈ 9.12 µM) | – | – | – | – | – | – | –
Cc1noc2c1C(=O)c1ccccc1/C2=N/O | > 64 | – | > 64 | > 64 | 8 (≈ 35.1 µM) | > 64 | 16 (≈ 70.1 µM) | 8 (≈ 35.1 µM) | 0.063 | 2 | – | – | –
Cc1noc2c1C(=O)c1sccc1/C2=N/O | > 64 | – | > 64 | > 64 | 0.25 (≈ 1.07 µM) | > 64 | 4 (≈ 17.1 µM) | 8 (≈ 34.2 µM) | 0.094 | 2 | – | – | –
O=C1c2ccccc2-c2nccc3ccnc1c23 [SAMPANGINE] | – | – | – | – | – | – | – | – | – | – | 0.5 (≈ 2.15 µM) | 2 (≈ 8.61 µM) | –
Cc1ccnc2c1C(=O)c1sc([N+](=O)[O-])cc1C2=O | – | – | – | – | – | – | – | – | – | – | 0.5 (≈ 1.82 µM) | 0.25 (≈ 0.912 µM) | –
CO/N=C1/c2ccccc2C(=O)c2c(C)noc21 | > 64 | – | > 64 | > 64 | 32 (≈ 132 µM) | > 64 | – | – | 0.047 | 2 | – | – | –
CO/N=C1/c2ccsc2/C(=N\OC)c2ccsc21 | > 64 | – | > 64 | > 64 | 32 (≈ 115 µM) | > 64 | – | – | – | > 64 | – | – | >2
CCO/N=C1/c2ccccc2C(=O)c2c(C)noc21 | > 64 | – | > 64 | > 64 | > 64 | > 64 | – | – | 0.039 | 2 | – | – | –
Cc1noc2c1C(=O)c1sccc1/C2=N/OC(C)C | > 64 | – | > 64 | > 64 | > 64 | > 64 | – | – | 0.063 | 2 | – | – | –
CCc1noc2c1C(=O)c1sccc1/C2=N/OC | > 64 | – | > 64 | > 64 | 0.13 (≈ 0.496 µM) | > 64 | 4 (≈ 15.3 µM) | 0.13 (≈ 0.496 µM) | 0.047 | 2 | – | – | –
CCCc1noc2c1C(=O)c1sccc1/C2=N/OC | > 64 | – | > 64 | > 64 | 4 (≈ 14.5 µM) | > 64 | 16 (≈ 57.9 µM) | 2 (≈ 7.24 µM) | 0.25 | 8 | – | – | –
CO/N=C1/c2ccsc2C(=O)c2ccsc21 | > 64 | – | > 64 | > 64 | 64 (≈ 257 µM) | > 64 | – | – | 0.047 | 2 | – | – | –
CO/N=C1/c2ccoc2C(=O)c2c(C)noc21 | > 64 | – | > 64 | > 64 | 2 (≈ 8.61 µM) | > 64 | 8 (≈ 34.5 µM) | 1 (≈ 4.31 µM) | 0.094 | 4 | – | – | –
CCO/N=C1/c2ccsc2C(=O)c2c(C)noc21 | > 64 | – | > 64 | > 64 | 0.13 (≈ 0.496 µM) | > 64 | 4 (≈ 15.3 µM) | 2 (≈ 7.63 µM) | 0.047 | 2 | – | – | –
